Patent publication US10059701B2 (Merck Patent GmbH, priority 2015, dated 2018)
Where a name gives a salt, the structure may show the parent alone.

Key:
[1] = molecular target: T1, IRAK4 (Homo sapiens, UniProt Q9NWZ3); assay: IRAK4 enzymatic assay (ADP-Glo luminescence); type: biochemical; conditions: purified human recombinant His-TEV-IRAK4 (1-460), ATP 2 μM
T1 construct: His-TEV-IRAK4 (1-460); His (N); TEV cleavage site (N)
T1 sequence (Q9NWZ3 1-460): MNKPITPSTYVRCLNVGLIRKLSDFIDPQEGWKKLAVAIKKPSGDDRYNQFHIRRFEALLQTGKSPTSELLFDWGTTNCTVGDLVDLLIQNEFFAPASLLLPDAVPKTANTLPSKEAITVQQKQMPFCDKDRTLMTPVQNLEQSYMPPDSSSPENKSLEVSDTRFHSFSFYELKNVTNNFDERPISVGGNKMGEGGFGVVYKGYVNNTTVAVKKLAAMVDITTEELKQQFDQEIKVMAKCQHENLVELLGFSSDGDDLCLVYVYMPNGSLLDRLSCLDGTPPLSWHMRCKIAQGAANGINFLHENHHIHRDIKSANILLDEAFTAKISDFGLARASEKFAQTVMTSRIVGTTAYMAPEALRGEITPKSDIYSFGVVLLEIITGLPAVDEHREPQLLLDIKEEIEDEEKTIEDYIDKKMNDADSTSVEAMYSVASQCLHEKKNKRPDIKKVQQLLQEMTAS
Method in brief: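 Recombinant His-TEV-IRAK4 (1-460) at 0.3 μg/ml preincubated 15 min at RT with compounds (10 μM to 0.5 nM) in Hepes pH 7.0 buffer with MgCl2/MnCl2. Reaction started with 2 μM ATP and 300 nM STK1-biotin peptide, run 2 h at RT. ADP formed read by ADP-Glo luminescence.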

[2] = molecular target: T2, IRAK1 (Homo sapiens, UniProt P51617); assay: IRAK1 enzymatic assay (ADP-Glo luminescence); type: biochemical; conditions: purified human recombinant His-TEV-IRAK1 (194-712)
T2 construct: His-TEV-IRAK1 (194-712); His (N); TEV cleavage site (N)
Method in brief: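 Recombinant human His-TEV-IRAK1 (194-712), 0.3 μg/ml, preincubated 15 min at RT with compounds (10 μM to 0.5 nM) in 50 mM Hepes pH 7.0, 10 mM MgCl2, 2 mM DTT, 0.1% BSA. ATP-started reaction run 2 hours at RT; ADP formed from ATP hydrolysis/autophosphorylation read by ADP-Glo luminescence.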

T2 sequence (P51617 194-712): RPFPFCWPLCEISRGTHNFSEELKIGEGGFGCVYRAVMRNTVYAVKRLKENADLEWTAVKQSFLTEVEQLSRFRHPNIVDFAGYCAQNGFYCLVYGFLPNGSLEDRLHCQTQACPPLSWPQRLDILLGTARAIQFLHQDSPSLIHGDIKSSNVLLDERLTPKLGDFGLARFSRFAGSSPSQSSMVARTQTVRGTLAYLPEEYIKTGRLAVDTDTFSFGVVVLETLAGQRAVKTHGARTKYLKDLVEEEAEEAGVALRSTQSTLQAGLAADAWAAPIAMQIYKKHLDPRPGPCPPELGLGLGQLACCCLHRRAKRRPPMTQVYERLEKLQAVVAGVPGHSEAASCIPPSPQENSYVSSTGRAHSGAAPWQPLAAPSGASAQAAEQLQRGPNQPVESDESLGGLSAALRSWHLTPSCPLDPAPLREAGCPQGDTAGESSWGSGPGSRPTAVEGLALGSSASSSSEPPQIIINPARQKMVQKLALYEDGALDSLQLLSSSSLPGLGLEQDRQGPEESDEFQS

IC50 [1] [nM] | IC50 [2] [nM] | SMILES
≤ 100 | ≤ 100 | O=C(/N=c1\[nH]c2cc(N3CCOCC3=O)ccc2n1[C@H]1CC[C@@H](CO)CC1)c1cccc(C(F)F)c1 [Compound 123, cis-(E)-3-(difluoromethyl)-N-(1-(4-(hydroxymethyl)cyclohexyl)-5-(3-oxomorpholino)-1H-benzo[d]imidazol-2(3H)-ylidene)benzamide]
100 to 1000 | > 1000 | O=C(/N=c1\[nH]c2cc(N3CCOCC3=O)ccc2n1CCCO)c1cccc(C(F)(F)F)n1 [Compound 84, (E)-N-(1-(3-hydroxypropyl)-5-(3-oxomorpholino)-1H-benzo[d]imidazol-2(3H)-ylidene)-6-(trifluoromethyl)picolinamide]
≤ 100 | 100 to 1000 | CC(F)(F)Cn1/c(=N/C(=O)c2cccc(C(F)(F)F)c2)[nH]c2cc(N3CCCOC3=O)ccc21 [Compound 179, (E)-N-(1-(2,2-difluoropropyl)-5-(2-oxo-1,3-oxazinan-3-yl)-1H-benzo[d]imidazol-2(3H)-ylidene)-3-(trifluoromethyl)benzamide]
≤ 100 | ≤ 100 | COc1cc2c(cc1N1CCOCC1=O)[nH]/c(=N\C(=O)c1cccc(C(F)(F)F)c1)n2CC1(CO)CC1 [Compound 53, (E)-N-(1-((1-(hydroxymethyl)cyclopropyl)methyl)-6-methoxy-5-(3-oxomorpholino)-1H-benzo[d]imidazol-2(3H)-ylidene)-3-(trifluoromethyl)benzamide]
≤ 100 | ≤ 100 | O=C(/N=c1\[nH]c2cc(N3CCCOC3=O)ccc2n1CC(F)CO)c1cccc(C(F)(F)F)c1 (stereo not drawn) [Compound 145, (E)-N-(1-(2-fluoro-3-hydroxypropyl)-5-(2-oxo-1,3-oxazinan-3-yl)-1H-benzo[d]imidazol-2(3H)-ylidene)-3-(trifluoromethyl)benzamide]
≤ 100 | 100 to 1000 | O=C(/N=c1\[nH]c2cc(N3CCCOC3=O)ccc2n1CC1(C(=O)O)CC1)c1cccc(C(F)(F)F)c1 [Compound 174, (E)-1-((5-(2-oxo-1,3-oxazinan-3-yl)-2-((3-(trifluoromethyl)benzoyl)imino)-2,3-dihydro-1H-benzo[d]imidazol-1-yl)methyl)cyclopropanecarboxylic acid]
≤ 100 | 100 to 1000 | C[C@H](CCO)n1/c(=N/C(=O)c2cccc(C(F)F)c2)[nH]c2cc(N3CCCOC3=O)ccc21 [Compound 44, (R,E)-3-(difluoromethyl)-N-(1-(4-hydroxybutan-2-yl)-5-(2-oxo-1,3-oxazinan-3-yl)-1H-benzo[d]imidazol-2(3H)-ylidene)benzamide]
≤ 100 | 100 to 1000 | O=C(/N=c1\[nH]c2cc(N3CCCOC3=O)ccc2n1CC1CCCCO1)c1cccc(C(F)F)c1 (stereo not drawn) [Compound 160, (E)-3-(difluoromethyl)-N-(5-(2-oxo-1,3-oxazinan-3-yl)-1-((tetrahydro-2H-pyran-2-yl)methyl)-1H-benzo[d]imidazol-2(3H)-ylidene)benzamide]
≤ 100 | > 1000 | O=C(/N=c1\[nH]c2cc(N3CCCOC3=O)ccc2n1[C@@H]1C[C@H]1CO)c1cccc(C(F)(F)F)c1 (racemic) [Compound 144, rac-(E)-N-(1-((1R,2R)-2-(hydroxymethyl)cyclopropyl)-5-(2-oxo-1,3-oxazinan-3-yl)-1H-benzo[d]imidazol-2(3H)-ylidene)-3-(trifluoromethyl)benzamide]
≤ 100 | > 1000 | N#Cc1cc2c(cc1N1CCOCC1=O)[nH]/c(=N\C(=O)c1cccc(C(F)(F)F)c1)n2CCCO [Compound 138, (E)-N-(6-cyano-1-(3-hydroxypropyl)-5-(3-oxomorpholino)-1H-benzo[d]imidazol-2(3H)-ylidene)-3-(trifluoromethyl)benzamide]
≤ 100 | 100 to 1000 | O=C(/N=c1\[nH]c2cc(N3CCOCC3=O)ccc2n1C1CCNCC1)c1cccc(C(F)F)c1 [Compound 129, (E)-3-(difluoromethyl)-N-(5-(3-oxomorpholino)-1-(piperidin-4-yl)-1H-benzo[d]imidazole-2(3H)-ylidene)benzamide hydrochloride]
≤ 100 | ≤ 100 | O=C(/N=c1\[nH]c2cc(N3CCOCC3=O)ccc2n1[C@H]1CC[C@H](O)CC1)c1cccc(C(F)F)c1 [Compound 28, trans-(E)-3-(difluoromethyl)-N-(1-(4-hydroxycyclohexyl)-5-(3-oxomorpholino)-1H-benzo[d]imidazol-2(3H)-ylidene)benzamide]
≤ 100 | > 1000 | O=C(/N=c1\[nH]c2cc(N3CCCOC3=O)ccc2n1C1CCCC1)c1cccc(C(F)(F)F)c1 [Compound 171, (E)-N-(1-cyclopentyl-5-(2-oxo-1,3-oxazinan-3-yl)-1H-benzo[d]imidazol-2(3H)-ylidene)-3-(trifluoromethyl)benzamide]

The next lines start with the compound.

SMILES | IC50 [1] [nM] | IC50 [2] [nM]
CS(=O)(=O)N1CCC(n2/c(=N/C(=O)c3cccc(C(F)F)c3)[nH]c3cc(N4CCOCC4=O)ccc32)CC1 [Compound 133, (E)-3-(difluoromethyl)-N-(1-(1-(methylsulfonyl)piperidin-4-yl)-5-(3-oxomorpholino)-1H-benzo[d]imidazole-2(3H)-ylidene)benzamide] | ≤ 100 | ≤ 100
N#Cc1cccc(C(=O)/N=c2\[nH]c3cc(N4CCOCC4=O)c(Br)cc3n2CCCO)c1 [Compound 48, (E)-N-(6-bromo-1-(3-hydroxypropyl)-5-(3-oxomorpholino)-1H-benzo[d]imidazol-2(3H)-ylidene)-3-cyanobenzamide] | ≤ 100 | 100 to 1000
COc1cc2c(cc1N1CCOCC1=O)[nH]/c(=N\C(=O)c1cccc(CO)c1)n2CCCO [Compound 64, (E)-3-(hydroxymethyl)-N-(1-(3-hydroxypropyl)-6-methoxy-5-(3-oxomorpholino)-1H-benzo[d]imidazol-2(3H)-ylidene)benzamide] | ≤ 100 | 100 to 1000
CC(=O)N1CCC(n2/c(=N/C(=O)c3cccc(C(F)F)c3)[nH]c3cc(N4CCOCC4=O)ccc32)CC1 [Compound 131, (E)-N-(1-(1-acetylpiperidin-4-yl)-5-(3-oxomorpholino)-1H-benzo[d]imidazole-2(3H)-ylidene)-3-(difluoromethyl)benzamide] | ≤ 100 | 100 to 1000
O=C(/N=c1\[nH]c2cc(N3CCOCC3=O)ccc2n1CCCO)c1ccc2scnc2c1 [Example 232, (E)-N-(1-(3-hydroxypropyl)-5-(3-oxomorpholino)-1H-benzo[d]imidazol-2(3H)-ylidene)benzo[d]thiazole-5-carboxamide] | ≤ 100 | > 1000
N#Cc1cccc(C(=O)/N=c2\[nH]c3cc(N4CCOCC4=O)ccc3n2[C@H]2CC[C@H](O)CC2)c1 [Compound 27, trans-(E)-3-cyano-N-(1-(4-hydroxycyclohexyl)-5-(3-oxomorpholino)-1H-benzo[d]imidazol-2(3H)-ylidene)benzamide] | ≤ 100 | ≤ 100
CC(C)N1CCN(c2ccc3c(c2)[nH]/c(=N\C(=O)c2cccc(C(F)F)c2)n3CCCO)C(=O)C1 [Compound 185, (E)-3-(difluoromethyl)-N-(1-(3-hydroxypropyl)-5-(4-isopropyl-2-oxopiperazin-1-yl)-1H-benzo[d]imidazol-2(3H)-ylidene)benzamide] | ≤ 100 | ≤ 100
CCC(CCO)n1/c(=N/C(=O)c2cccc(C(F)F)c2)[nH]c2cc(N3CCOCC3=O)ccc21 (racemic) [Compound 125, rac-(E)-3-(difluoromethyl)-N-(1-(1-hydroxypentan-3-yl)-5-(3-oxomorpholino)-1H-benzo[d]imidazol-2(3H)-ylidene)benzamide] | ≤ 100 | > 1000
O=C(/N=c1\[nH]c2cc(N3CCNCC3=O)ccc2n1CCCO)c1cccc(C(F)F)c1 [Compound 109, (E)-3-(difluoromethyl)-N-(1-(3-hydroxypropyl)-5-(2-oxopiperazin-1-yl)-1H-benzo[d]imidazol-2(3H)-ylidene)benzamide] | ≤ 100 | 100 to 1000
C[C@H](CCO)n1/c(=N/C(=O)c2cccc(C#N)c2)[nH]c2cc(N3CCOCC3=O)ccc21 [Compound 10, (R,E)-3-cyano-N-(1-(4-hydroxybutan-2-yl)-5-(3-oxomorpholino)-1H-benzo[d]imidazol-2(3H)-ylidene)benzamide] | ≤ 100 | 100 to 1000
C[C@@H](CCO)n1/c(=N/C(=O)c2cccc(C(F)F)c2)[nH]c2cc(N3CCOCC3=O)ccc21 [Compound 16, (S,E)-3-(difluoromethyl)-N-(1-(4-hydroxybutan-2-yl)-5-(3-oxomorpholino)-1H-benzo[d]imidazol-2(3H)-ylidene)benzamide] | ≤ 100 | 100 to 1000
